Patent US20240043448A1, “Small Molecule Inhibitors of KRAS G12C Mutant” (Merck Sharp & Dohme LLC, priority 2019, published 2024)
Read-outs that look alike come from different tables or passages of the source.

Experiments:
phospho-ERK = experiment: Cellular phospho-ERK assay; assay type: cell-based; settings: NCI-H358 cells, 2 hour incubation, ratio of p-Erk vs total Erk, read-out: IC50 (nM) pERK (Cell)
Protocol: NCI-H358 cells (ATCC® CRL-5807™) were cultured in T150 flask in growth medium (RPMI medium 1640-GlutaMAX™-I (ThermoFisher Scientific 61870) containing 10% fetal bovine serum (ThermoFisher Scientific 10091148)). The cells were harvested in growth medium after TrypLE (ThermoFisher scientific 12604021) digestion and were seeded in a 384-well collagen coated cell culture plate (Corning 356702) at a density of 15,000 cells/well, and incubated at 37° C., 5% CO2 overnight. The compound dose-response titrations were prepared and appropriate amounts of compounds were dispensed in a 384-well intermediate plate using an Echo 550 liquid handler. RPMI medium 1640-GlutaMAX™-I were added to the intermediate plate and transferred to 384-well cell culture plate, which was incubated at 37° C., 5% CO2 for 2 hours. After removal of medium from the plate, cells were lysed in lysis buffer from Alpha SureFire® Ultra™ Multiplex p-Erk and total Erk assay kit (PerkinElmer MPSU-PTERK) containing Halt™ Protease and Phosphotase inhibitor cocktail (ThermoFisher Scientific 78446) at room temperature with constant shaking at 300 rpm for 30 minutes. The cell lysates were then transferred to OptiPlate-384 plate (PerkinElmer 6005620) and the phosphorylation of Erk and total Erk levels were detected by Alpha SureFire Ultra Multiplex p-Erk kit (PerkinElmer MPSU-PTERK) following the manufacturer's protocol. Assay plates were read on an EnVision Multimode Plate Reader (PerkinElmer), and the ratio of p-Erk vs total Erk in each well was used as the final readout. Dose response curves were analyzed using a 4-parameter logistic model to calculate IC50 values using spotfire software.

[1] = target: Biotinylated KRAS G12C protein (Homo sapiens (Human), UniProt P01116, C118S/C51S/C80L/G12C); experiment: SOS-catalyzed nucleotide exchange assay (TR-FRET); assay type: biochemical; settings: in vitro apparent potency; preincubation time of 60 minutes prior to addition of SOS
Protocol: The SOS-catalyzed nucleotide exchange assay utilizes a preformed complex of recombinant biotinylated KRAS protein containing G12C/C51S/C80L/C118S mutations (183 amino acids; biotin on K10; leader sequence which is an AviTag; referred to as SEQ ID NO: 1 or “Biotinylated KRAS G12C protein” hereafter), Bodipy-GDP, and Terbium-streptavidin. Compounds are added to this complex and then after incubation for 60 minutes, the mixture is treated with recombinant SOS protein and unlabeled GTP. Small molecule inhibitors stabilize the Bodipy-GDP complex whereas the untreated protein rapidly exchanges Bodipy-GDP for unlabeled GTP resulting in reduced TR-FRET signal.
Biotinylated KRAS G12C protein (SEQ ID NO: 1) is diluted to 2 μM in an EDTA buffer (20 mM HEPES, 150 mM sodium chloride, 10 mM EDTA, and 0.01% Tween) and incubated at room temperature for one hour. This mixture is then further diluted to 90 nM in an assay buffer (20 mM HEPES, 150 mM sodium chloride, 10 mM magnesium chloride, and 0.005% Tween) containing 15 nM of Terbium-Streptavidin (Invitrogen, catalog #PV3577) and 900 nM of Bodipy-GDP and incubated at room temperature for six hours. This solution is referred to as Biotinylated KRAS G12C mixture.
Each test compound (10 mM stock in DMSO) is diluted in DMSO to make a 10-point, 3-fold dilution series in a 384-well low dead volume microplate (Labcyte, catalog #LP-0200). Once titrations are made, 10 nL of the diluted compounds is acoustically dispensed into a 384-well plate (Corning, catalog #3820) using an Echo 550 (Labcyte).
Each well of the plate receives 3 μL Biotinylated KRAS G12C mixture that had been incubating for six hours and 3 μL of assay buffer using a BioRAPTR (Beckman Coulter) and is incubated at room temperature for 60 minutes. Each well then receives 3 μL of 240 nM recombinant human SOS protein and 9 mM GTP (Sigma, G8877) in assay buffer and is incubated at room temperature for 60 minutes.
The time-resolved fluorescence resonance energy transfer signal of the plate is measured on an Envision (PerkinElmer) plate reader: Excitation filter=340 nm; emission1=495 nm; emission2=520 nm; dichroic mirror=D400/D505; delay time=100 μs. The signal of each well is determined as the ratio of the emission at 520 nm to that at 495 nm. Percent effect of each well is determined after normalization to control wells containing DMSO (no effect) or a saturating concentration of inhibitor (max effect). The apparent effect as a function of compound concentration is fit to a four parameter logistic equation.

Row | IC50 (phospho-ERK; Homo sapiens, NCI-H358, 2 h) | IC50 [1] | IC50 (phospho-ERK) | Compound
1 | 389 nM | 64 nM | – | C=CC(=O)N1C[C@H](C)N(c2nc(=O)n3c4nc(c(F)cc24)-c2cc(C(F)(F)F)ccc2OCCOc2ccnc(C(C)C)c2-3)C[C@H]1C [Example 86, 2-[(2S,5R)-2,5-dimethyl-4-(prop-2-enoyl)piperazin-1-yl]-20-fluoro-6-(propan-2-yl)-16-(trifluoromethyl)-11,12-dihydro-4H-1,18-(ethanediylidene)pyrido[4,3-e]pyrimido[1,6-g][1,4,7,9] benzodioxadiazacyclododecin-4-one]
2 | – | 29 nM | 137 nM | 17,20-difluoro-6-(propan-2-yl)-2-[4-(prop- 2-enoyl)-2-(2,2,2-trifluoroethyl)piperazin- 1-yl]-11,12-dihydro-4H,10H-1,18- (ethanediylidene)pyrido[4,3- e]pyrimido[1,6-g][1,7,9] benzoxadiazacyclododecin-4-one [Example 101]
3 | – | 1100 nM | 2730 nM | C=CC(=O)N1C[C@H](C)N(c2nc(=O)n3c4nc(c(F)cc24)-c2cccc(C(F)(F)F)c2OCCOc2ccnc(C(C)C)c2-3)C[C@H]1C [Example 116, 2-[(2S,5R)-2,5-dimethyl-4-(prop-2-enoyl)piperazin-1-yl]-20-fluoro-6-(propan-2-yl)-14-(trifluoromethyl)-11,12-dihydro-4H-1,18-ethenopyrido[4,3-e]pyrimido[1,6-g][1,4,7,9]benzodioxadiazacyclododecin-4-one]
4 | 8 nM | 1.1 nM | – | C=CC(=O)N1CC(C)N(c2nc(=O)n3c4nc(c(F)cc24)-c2c(F)cc(F)cc2OCC(F)(F)CCc2ccnc(C(C)C)c2-3)CC1C [Example 56, (5aRa,18aRa)-2-[(2S,5R)-2,5-dimethyl-4-(prop-2-enoyl)piperazin-1-yl]-12,12,16,18,21-pentafluoro-6-(propan-2-yl)-10,11,12,13-tetrahydro-4H-1,19-(ethanediylidene)pyrido[4,3-f]pyrimido[1,6-h][1,8,10] benzoxadiazacyclotri-decin-4-one]
5 | 11 nM | 6.5 nM | – | C=CC(=O)N1C[C@H](C)N(c2nc(=O)n3c4nc(c(F)cc24)-c2c(F)cccc2OCCOc2ccnc(C(C)C)c2-3)C[C@H]1C (single isomer, unassigned) [Example 15a]
6 | – | 1.8 nM | 9.3 nM | C=CC(=O)N1C[C@H](C)N(c2nc(=O)n3c4nc(c(F)cc24)-c2c(F)cccc2OCC(F)(F)CCc2ccnc(C(C)C)c2-3)C[C@H]1C [Example 52, (5aRa,18aRa)-2-[(2S,5R)-2,5-dimethyl-4-(prop-2-enoyl)piperazin-1-yl]-12,12,18,21-tetrafluoro-6-(propan-2-yl)-10,11,12,13-tetrahydro-4H-1,19-(ethanediylidene)pyrido[4,3-f]pyrimido[1,6-h][1,8,10]benzoxadiazacyclotridecin-4-one]
7 | – | 11 nM | 21 nM | C=CC(=O)N1CCN(c2nc(=O)n3c4nc(c(F)cc24)-c2c(F)cccc2OCCCOc2ccnc(C(C)C)c2-3)[C@@H](C)C1 [Example 1a, 18,21-difluoro-2-[(2S)-2-methyl-4-(prop-2-enoyl)piperazin-1-yl]-6-(propan-2-yl)-12,13-dihydro-4H,11H-1,19-ethenopyrido[4,3-f]pyrimido[1,6-h][1,5,8,10]benzodioxadiazacyclotridecin-4-one]
8 | 6.9 nM | 3.9 nM | – | C=CC(=O)N1CCN(c2nc(=O)n3c4nc(c(F)cc24)-c2c(F)cccc2OCCOc2ccnc(C(C)C)c2-3)[C@@H](C)C1 (single isomer, unassigned) [Example 12a]
9 | – | 11 nM | 66 nM | C=CC(=O)N1CCN(c2nc(=O)n3c4nc(c(F)cc24)-c2c(F)cccc2CCOCCc2ccnc(C(C)C)c2-3)[C@@H](C)C1 [Example 17a, 18,21-difluoro-2-[(2S)-2-methyl-4-(prop-2-enoyl)piperazin-1-yl]-6-(propan-2-yl)-10,11,13,14-tetrahydro-4H-1,19-ethenopyrido[3,4-e]pyrimido[6,1-c][9,2,4]benzoxadiazacyclotridecin-4-one]
10 | – | 192 nM | 651 nM | 17,20-difluoro-12-hydroxy-2-[(2S)-2-methyl-4-(prop-2-enoyl)piperazin-1-yl]-6-(propan-2-yl)-10,11,12,13-tetrahydro-4H-1,18-ethenopyrido[3,4-e]pyrimido[6,1-c][2,4]benzodiazacyclododecin-4-one [Example 118-1]
11 | 15 nM | 2.6 nM | – | C=CC(=O)N1CCN(c2nc(=O)n3c4nc(c(F)cc24)-c2c(ccc(F)c2F)OCC(F)(F)CCc2ccnc(C(C)C)c2-3)CC1 [Example 65, 12,12,17,18,21-pentafluoro-6-(propan-2-yl)-2-[4-(prop-2-enoyl)piperazin-1-yl]-10,11,12,13-tetrahydro-4H-1,19-(ethanediylidene)pyrido[4,3-f]pyrimido[1,6-h][1,8,10] benzoxadiazacyclotri-decin-4-one]

Row | Compound | IC50 (phospho-ERK; Homo sapiens, NCI-H358, 2 h) | IC50 [1] | IC50 (phospho-ERK)
12 | C=CC(=O)N1C[C@H](C)N(c2nc(=O)n3c4nc(c(F)cc24)-c2c(F)cccc2OCCCc2ccnc(C(C)C)c2-3)C[C@H]1C [Example 75, 2-[(2S,5R)-2,5-dimethyl-4-(prop-2-enoyl)piperazin-1-yl]-17,20-difluoro-6-(propan-2-yl)-11,12-dihydro-4H,10H-1,18-ethenopyrido[4,3-e]pyrimido[1,6-g][1,7,9]benzoxadiazacyclododecin-4-one] | 8.8 nM | 1.7 nM | –
13 | C=CC(=O)N1CCN(c2nc(=O)n3c4nc(c(F)cc24)-c2c(F)cccc2CCCOc2ccnc(C(C)C)c2-3)[C@@H](C)C1 (single isomer, unassigned) [Example 20a] | – | 12 nM | 30 nM
14 | C=CC(=O)N1C[C@H](C)N(c2nc(=O)n3c4nc(c(Cl)cc24)-c2c(F)cccc2OCC(F)(F)COc2ccnc(C(C)C)c2-3)C[C@H]1C [Example 59, 21-chloro-2-[(2S,5R)-2,5-dimethyl-4-(prop-2-enoyl)piperazin-1-yl]-12,12,18-trifluoro-6-(propan-2-yl)-12,13-dihydro-4H,11H-1,19-(ethanediylidene)pyrido[4,3-f]pyrimido[1,6-h][1,5,8,10] benzodioxadiazacyclo-tridecin-4-one] | 6.1 nM | 0.91 nM | –
15 | C=CC(=O)N1CCN(c2nc(=O)n3c4nc(c(F)cc24)-c2c(F)cccc2OCCCc2ccnc(C(C)C)c2-3)[C@@H](C)C1 (single isomer, unassigned) [Example 10a] | – | 4.3 nM | 6.7 nM
16 | C=CC(=O)N1C[C@@H](C)N(c2nc(=O)n3c4nc(c(Cl)cc24)-c2c(F)ccc(F)c2OCCOc2ccnc(C(C)C)c2-3)C[C@@H]1C [Example 51-1, (5aSa,17aRa)-20-Chloro-2-[(2S,5R)-2,5-dimethyl-4-(prop-2-enoyl)piperazin-1-yl]-14,17-difluoro-6-(propan-2-yl)-11,12-di[(^2H)hydro](11,12-^2H2)-4H-1,18-(ethanediylidene)pyrido[4,3-e]pyrimido[1,6-g][1,4,7,9]benzodioxadiazacyclododecin-4-one] | – | 1 nM | 13 nM
